We go through twelve compounds from ChEMBL document CHEMBL1127062 (J Med Chem, 1993).

Sequence of Ryanodine receptor 1 (P11716 whole entry): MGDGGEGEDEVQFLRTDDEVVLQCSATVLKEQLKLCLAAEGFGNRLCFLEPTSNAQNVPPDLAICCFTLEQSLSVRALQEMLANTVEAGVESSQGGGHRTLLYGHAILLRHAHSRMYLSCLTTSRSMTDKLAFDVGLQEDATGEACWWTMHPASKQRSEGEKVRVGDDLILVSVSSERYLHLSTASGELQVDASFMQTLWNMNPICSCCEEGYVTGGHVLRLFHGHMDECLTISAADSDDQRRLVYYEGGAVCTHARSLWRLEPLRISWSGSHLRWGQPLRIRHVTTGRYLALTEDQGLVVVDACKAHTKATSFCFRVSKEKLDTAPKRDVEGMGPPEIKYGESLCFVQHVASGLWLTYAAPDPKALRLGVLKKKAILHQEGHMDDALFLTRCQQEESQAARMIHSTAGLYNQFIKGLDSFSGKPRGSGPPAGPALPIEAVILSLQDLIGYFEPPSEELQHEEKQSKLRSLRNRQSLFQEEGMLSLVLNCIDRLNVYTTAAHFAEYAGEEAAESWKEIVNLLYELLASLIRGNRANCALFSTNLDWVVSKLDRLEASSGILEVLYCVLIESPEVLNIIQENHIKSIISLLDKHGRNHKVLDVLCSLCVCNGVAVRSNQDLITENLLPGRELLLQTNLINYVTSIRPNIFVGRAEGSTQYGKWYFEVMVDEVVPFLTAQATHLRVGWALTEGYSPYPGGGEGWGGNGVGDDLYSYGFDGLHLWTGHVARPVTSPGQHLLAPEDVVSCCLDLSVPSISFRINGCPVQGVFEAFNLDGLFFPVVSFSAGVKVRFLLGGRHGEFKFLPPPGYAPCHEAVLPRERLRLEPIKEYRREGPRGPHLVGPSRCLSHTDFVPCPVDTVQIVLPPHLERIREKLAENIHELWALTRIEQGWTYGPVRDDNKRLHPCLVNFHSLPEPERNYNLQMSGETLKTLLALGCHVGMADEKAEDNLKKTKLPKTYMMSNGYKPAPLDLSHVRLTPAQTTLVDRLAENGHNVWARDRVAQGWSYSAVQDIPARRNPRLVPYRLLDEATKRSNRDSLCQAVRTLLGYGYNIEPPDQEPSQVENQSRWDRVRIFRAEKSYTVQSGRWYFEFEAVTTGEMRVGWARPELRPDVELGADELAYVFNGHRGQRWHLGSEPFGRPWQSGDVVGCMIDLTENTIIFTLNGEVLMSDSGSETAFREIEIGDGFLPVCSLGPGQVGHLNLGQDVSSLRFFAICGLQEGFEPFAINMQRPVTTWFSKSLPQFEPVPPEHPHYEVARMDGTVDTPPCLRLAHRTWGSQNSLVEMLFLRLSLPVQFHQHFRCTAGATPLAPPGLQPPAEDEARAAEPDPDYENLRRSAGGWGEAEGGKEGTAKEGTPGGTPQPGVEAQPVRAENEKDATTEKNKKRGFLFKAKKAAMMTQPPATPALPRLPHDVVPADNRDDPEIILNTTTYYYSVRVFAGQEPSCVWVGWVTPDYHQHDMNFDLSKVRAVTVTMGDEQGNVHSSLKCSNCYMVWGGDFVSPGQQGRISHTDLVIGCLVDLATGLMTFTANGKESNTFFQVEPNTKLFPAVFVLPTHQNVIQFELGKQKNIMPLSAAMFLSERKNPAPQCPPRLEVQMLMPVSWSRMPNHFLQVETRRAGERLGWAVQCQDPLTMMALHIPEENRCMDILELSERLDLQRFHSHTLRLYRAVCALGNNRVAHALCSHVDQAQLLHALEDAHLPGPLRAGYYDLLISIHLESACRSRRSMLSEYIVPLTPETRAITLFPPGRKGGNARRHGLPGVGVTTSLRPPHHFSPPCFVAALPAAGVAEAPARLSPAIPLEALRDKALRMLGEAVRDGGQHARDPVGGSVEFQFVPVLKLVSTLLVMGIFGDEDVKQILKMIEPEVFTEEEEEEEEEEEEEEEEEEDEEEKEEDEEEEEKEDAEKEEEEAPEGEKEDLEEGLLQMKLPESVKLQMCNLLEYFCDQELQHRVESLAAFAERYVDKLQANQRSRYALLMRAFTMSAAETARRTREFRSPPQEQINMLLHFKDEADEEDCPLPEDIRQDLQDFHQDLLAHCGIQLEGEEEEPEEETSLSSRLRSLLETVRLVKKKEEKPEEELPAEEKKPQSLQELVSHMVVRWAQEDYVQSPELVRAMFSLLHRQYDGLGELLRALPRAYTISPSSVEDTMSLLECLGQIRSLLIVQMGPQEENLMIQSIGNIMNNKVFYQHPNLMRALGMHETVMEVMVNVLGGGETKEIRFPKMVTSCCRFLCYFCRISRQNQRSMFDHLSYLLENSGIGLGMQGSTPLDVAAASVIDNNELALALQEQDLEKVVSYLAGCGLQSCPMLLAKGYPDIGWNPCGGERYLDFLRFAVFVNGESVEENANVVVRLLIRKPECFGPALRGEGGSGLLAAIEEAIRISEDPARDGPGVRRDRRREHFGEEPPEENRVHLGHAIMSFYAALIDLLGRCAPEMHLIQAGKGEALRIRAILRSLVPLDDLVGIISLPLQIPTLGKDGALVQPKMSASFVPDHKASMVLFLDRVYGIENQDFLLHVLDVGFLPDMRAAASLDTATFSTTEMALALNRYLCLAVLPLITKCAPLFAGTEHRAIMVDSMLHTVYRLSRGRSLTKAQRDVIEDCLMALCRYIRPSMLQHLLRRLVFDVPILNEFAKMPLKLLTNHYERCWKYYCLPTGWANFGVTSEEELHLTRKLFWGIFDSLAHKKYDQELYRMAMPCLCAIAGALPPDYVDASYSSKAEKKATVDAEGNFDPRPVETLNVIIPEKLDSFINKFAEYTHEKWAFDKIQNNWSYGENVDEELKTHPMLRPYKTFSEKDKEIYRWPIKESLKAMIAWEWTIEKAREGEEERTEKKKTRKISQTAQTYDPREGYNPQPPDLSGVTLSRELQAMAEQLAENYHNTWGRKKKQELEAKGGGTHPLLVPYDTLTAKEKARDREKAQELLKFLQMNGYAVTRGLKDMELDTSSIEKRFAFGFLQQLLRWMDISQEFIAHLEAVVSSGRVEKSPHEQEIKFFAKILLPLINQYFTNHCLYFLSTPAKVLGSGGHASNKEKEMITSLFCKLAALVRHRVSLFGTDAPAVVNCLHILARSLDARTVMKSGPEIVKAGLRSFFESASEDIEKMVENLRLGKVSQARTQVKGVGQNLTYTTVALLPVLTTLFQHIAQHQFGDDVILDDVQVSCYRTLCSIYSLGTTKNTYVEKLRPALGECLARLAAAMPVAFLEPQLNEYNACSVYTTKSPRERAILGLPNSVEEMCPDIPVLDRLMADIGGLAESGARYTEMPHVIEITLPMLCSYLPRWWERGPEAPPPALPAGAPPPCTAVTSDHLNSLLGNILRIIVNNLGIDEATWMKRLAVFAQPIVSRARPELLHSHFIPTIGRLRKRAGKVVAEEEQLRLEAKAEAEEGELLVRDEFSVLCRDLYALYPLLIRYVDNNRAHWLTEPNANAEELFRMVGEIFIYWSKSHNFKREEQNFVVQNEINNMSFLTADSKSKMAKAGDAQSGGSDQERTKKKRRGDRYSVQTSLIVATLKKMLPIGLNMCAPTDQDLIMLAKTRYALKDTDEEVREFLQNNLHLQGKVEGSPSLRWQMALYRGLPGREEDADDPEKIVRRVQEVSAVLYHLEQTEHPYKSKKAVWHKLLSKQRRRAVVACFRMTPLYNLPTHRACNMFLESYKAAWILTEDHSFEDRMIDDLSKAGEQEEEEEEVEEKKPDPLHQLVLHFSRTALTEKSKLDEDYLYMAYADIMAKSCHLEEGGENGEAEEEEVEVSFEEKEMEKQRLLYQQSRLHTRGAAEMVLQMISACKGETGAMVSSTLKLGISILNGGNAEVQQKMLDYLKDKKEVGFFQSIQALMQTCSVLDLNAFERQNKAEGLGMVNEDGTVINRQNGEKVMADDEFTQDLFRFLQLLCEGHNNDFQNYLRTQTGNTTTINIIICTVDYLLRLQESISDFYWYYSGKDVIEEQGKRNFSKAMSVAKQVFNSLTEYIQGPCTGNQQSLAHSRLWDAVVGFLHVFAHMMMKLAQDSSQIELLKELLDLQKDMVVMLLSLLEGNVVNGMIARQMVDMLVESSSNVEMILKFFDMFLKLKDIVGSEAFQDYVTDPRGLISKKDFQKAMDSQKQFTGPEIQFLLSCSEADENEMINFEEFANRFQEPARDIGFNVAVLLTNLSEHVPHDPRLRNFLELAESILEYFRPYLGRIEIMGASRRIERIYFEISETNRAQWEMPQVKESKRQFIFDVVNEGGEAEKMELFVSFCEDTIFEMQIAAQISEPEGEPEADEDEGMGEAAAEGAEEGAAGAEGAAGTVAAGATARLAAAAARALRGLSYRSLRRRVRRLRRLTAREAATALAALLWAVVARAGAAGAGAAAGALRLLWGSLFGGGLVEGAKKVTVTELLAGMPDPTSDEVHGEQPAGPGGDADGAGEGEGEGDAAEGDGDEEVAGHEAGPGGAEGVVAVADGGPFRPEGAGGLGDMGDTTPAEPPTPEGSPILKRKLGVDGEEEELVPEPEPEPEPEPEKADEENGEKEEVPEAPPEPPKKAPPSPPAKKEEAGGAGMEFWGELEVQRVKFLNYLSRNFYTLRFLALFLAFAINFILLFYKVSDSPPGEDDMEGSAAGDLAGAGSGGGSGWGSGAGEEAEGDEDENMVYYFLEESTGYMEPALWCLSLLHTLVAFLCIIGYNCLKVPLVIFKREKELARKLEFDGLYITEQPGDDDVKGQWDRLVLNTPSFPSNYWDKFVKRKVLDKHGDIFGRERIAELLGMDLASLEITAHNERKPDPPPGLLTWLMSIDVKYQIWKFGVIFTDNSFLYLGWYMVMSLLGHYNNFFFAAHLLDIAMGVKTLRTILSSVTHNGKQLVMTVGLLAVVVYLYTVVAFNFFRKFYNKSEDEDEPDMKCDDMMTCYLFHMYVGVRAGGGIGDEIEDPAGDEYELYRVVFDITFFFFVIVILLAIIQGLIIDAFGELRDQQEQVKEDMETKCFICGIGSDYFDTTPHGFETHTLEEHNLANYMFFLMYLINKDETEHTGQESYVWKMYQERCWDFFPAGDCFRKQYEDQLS

This test concerns the target Ryanodine receptor 1 (Oryctolagus cuniculus, UniProt P11716). In words: Affinity for sarcoplasmic reticular calcium release channel (SR CRC) of rabbit skeletal membrane vesicles.
Usually IC50 stands for the concentration that gives 50% inhibition. In the case of `CC1CCC2(O)C3(OC4(O)C[C@]2(C)C2(O)[C@H](OC(=O)c5ccc[nH]5)C(O)(C(C)C)C4(C)C32O)[C@@H]1OC(=O)CCN=C(N)N` (some centres not stated), the IC50 was 1.1 nM.
In the case of `CC1CCC2(O)C3(OC4(O)C[C@]2(C)C2(O)[C@H](OC(=O)c5ccc[nH]5)C(O)(C(C)C)C4(C)C32O)[C@@H]1OC(=O)CNC(=O)OCc1ccccc1` (some centres not stated), the IC50 came out at 4.8 nM.
The value for `CC1CCC2(O)C3(OC4(O)C[C@]2(C)C2(O)[C@H](OC(=O)c5ccc[nH]5)C(O)(C(C)C)C4(C)C32O)[C@@H]1OC(=O)CCNC(=O)OCc1ccccc1` (some centres not stated) was 5.9 nM; that for `CC1CCC2(O)C3(OC4(O)C[C@]2(C)C2(O)[C@H](OC(=O)c5ccc[nH]5)C(O)(C(C)C)C4(C)C32O)[C@@H]1OC(=O)CNC(=NC(=O)OCc1ccccc1)NC(=O)OCc1ccccc1` (some centres not stated) was 136 nM.
Regarding `C=C1CCC2(O)C3(OC4(O)C[C@]2(C)C2(O)[C@H](OC(=O)c5ccc[nH]5)C(O)(C(C)C)C4(C)C32O)[C@@H]1O` (stereo in doubt; 2) [ANHYDRORYANIDINE], the IC50 worked out at 8.9 nM.
For the compound `CC1CCC2(O)C3(OC4(O)C[C@]2(C)C2(O)[C@H](OC(=O)c5ccc[nH]5)C(O)(C(C)C)C4(C)C32O)[C@@H]1OC(=O)CCC(=O)O` (some centres not stated), the IC50 is greater than 1000 nM.
For the compound `CC1CCC2(O)C3(OC4(O)C[C@]2(C)C2(O)[C@H](OC(=O)c5ccc[nH]5)C(O)(C(C)C)C4(C)C32O)[C@@H]1OC(=O)CCN` (some centres not stated), the IC50 was determined as 2.6 nM.
Consider `CC1CCC2(O)C3(OC4(O)C[C@]2(C)C2(O)[C@H](OC(=O)c5ccc[nH]5)C(O)(C(C)C)C4(C)C32O)[C@@H]1OC(=O)CNC(=N)N` (some centres not stated), for which the IC50 stood at 1.8 nM.
With `CC1CCC2(O)C3(OC4(O)C[C@]2(C)C2(O)[C@H](OC(=O)c5ccc[nH]5)C(O)(C(C)C)C4(C)C32O)[C@@H]1OC(=O)CN` (some centres not stated) [GLYCYLRYANODINE], the IC50 was 1.8 nM.
Turning to `C=C1CCC2(O)C3(OC4(O)C[C@]2(C)C2(O)[C@H](OC(=O)c5ccc[nH]5)C(O)(C(C)C)C4(C)C32O)[C@@H]1O` (stereo in doubt) [ANHYDRORYANIDINE], the IC50 was greater than 10000 nM.
On to `CNC(=O)CCC(=O)O[C@@H]1C(C)CCC2(O)C13OC1(O)C[C@]2(C)C2(O)[C@H](OC(=O)c4ccc[nH]4)C(O)(C(C)C)C1(C)C32O` (some centres not stated), for which the half-inhibitory concentration (IC50) worked out at 49.4 nM.
The value for `CC1CCC2(O)C3(OC4(O)C[C@]2(C)C2(O)[C@H](OC(=O)c5ccc[nH]5)C(O)(C(C)C)C4(C)C32O)[C@@H]1OC(=O)CCN=C(NC(=O)OCc1ccccc1)NC(=O)OCc1ccccc1` (some centres not stated) was 43.6 nM.
